# According to PubChem BioAssay (NCI):
#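 Here, GI50 denotes the concentration required for 50% inhibition of growth. Definition used: TGI = concentration required for complete inhibition of growth.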
# Assays:
# Experiment in all cases: NCI tumour cell line growth inhibition, 384-well format
# [1] = tested on: A498 renal
# [2] = tested on: BT-549 breast
# [3] = tested on: EKVX NSCLC
# [4] = tested on: HCC-2998 colon
# [5] = tested on: HS 578T breast
# [6] = tested on: K-562 leukemia
# [7] = tested on: LOX IMVI melanoma
# [8] = tested on: MDA-MB-231 breast
# [9] = tested on: MDA-MB-435 melanoma
# [10] = tested on: SK-MEL-2 melanoma
# [11] = tested on: SN12C renal
# [12] = tested on: SNB-75 CNS
# [13] = tested on: U251 glioblastoma
compound,measurement,setting,value
CS(=O)(=O)CCNCc1ccc(-c2ccc3ncnc(Nc4ccc(OCc5cccc(F)c5)c(Cl)c4)c3c2)o1,GI50,[1],1260 nM
same,TGI,[1],2520 nM
same,GI50,[2],1650 nM
same,TGI,[2],3010 nM
same,GI50,[3],777 nM
same,TGI,[3],3130 nM
same,GI50,[4],1810 nM
same,TGI,[4],3220 nM
same,GI50,[5],1970 nM
same,TGI,[5],3480 nM
same,GI50,[6],1690 nM
same,TGI,[6],3070 nM
same,GI50,[7],1800 nM
same,TGI,[7],3210 nM
same,GI50,[8],1930 nM
same,TGI,[8],3400 nM
same,GI50,[9],4970 nM
same,TGI,[9],9250 nM
same,GI50,[10],1600 nM
same,TGI,[10],2960 nM
same,GI50,[11],2160 nM
same,TGI,[11],7100 nM
same,GI50,[12],2280 nM
same,TGI,[12],5280 nM
same,GI50,[13],1840 nM
same,TGI,[13],3350 nM
